# In article PMC6522510 (Nature Communications, 2019):
# Like-named read-outs stand apart in the source and are kept apart here.
# Columns and labels:
# MV4-11 [1] = assay type: cell-based; conditions: Homo sapiens, 72 h, Cell Titer Glo
# ML-2 = assay type: cell-based; conditions: Homo sapiens, 72 h, Cell Titer Glo
# AML cell lines = conditions: human, 5 min
# CMS [2] = assay type: cell-based; conditions: Homo sapiens, 72 h, read-out: IC50 CMS
# [3] = parameters: method as in Wang et al., Biol Blood Marrow Transplant 2014 and others; conditions: biphasic; ref Wang et al., Biol Blood Marrow Transplant 2014 and others; cited from earlier work
# CMS [4] = assay: Secondary dose-response HTS, Cell Titer Glo; assay type: cell-based, human; conditions: Homo sapiens, HTS; secondary high-throughput screen; CMS; read-out: average effective concentration, CMS
# MOLM-13 [5] = assay type: cell-based; conditions: Homo sapiens, 72 h, Cell Titer Glo
# U937 [6] = assay: Secondary dose-response HTS, Cell Titer Glo; assay type: cell-based, human; conditions: Homo sapiens, U-937; secondary high-throughput screen; U937; read-out: average effective concentration, U937
# MOLM-13 [7] = assay: Secondary dose-response HTS, Cell Titer Glo; assay type: cell-based, human; conditions: Homo sapiens; secondary high-throughput screen; MOLM-13; read-out: average effective concentration, MOLM-13
# U937 [8] = assay type: cell-based; conditions: Homo sapiens, U-937; 72 h, Cell Titer Glo
# M07e [9] = assay: cells; parameters: species or system AML cell lines (8); Secondary HTS, 10-point dose-response in triplicate, Cell Titer Glo viability, four-parameter fit EC50; conditions: M-07e, 72 h, read-out: M07e
# CMK [10] = assay: Secondary dose-response HTS, Cell Titer Glo; assay type: cell-based, human; conditions: Homo sapiens; secondary high-throughput screen; CMK; read-out: average effective concentration, CMK
# [11] = test system: CHRF288-11-luciferase/YFP+ xenograft; assay: In vivo efficacy, survival; parameters: species or system NSG mice
# [12] = test system: Mll-PTD/wt:Flt3ITD/ITD primary transplants; assay: In vivo efficacy, survival; parameters: species or system mice; conditions: Mll-PTD/wt:Flt3ITD/ITD primary transplants, 50 mg kg−1 q4d, i.p.
# CHRF288-11 [13] = assay type: cell-based; conditions: Homo sapiens, 72 h
# THP-1 = assay type: cell-based; conditions: Homo sapiens, 72 h, Cell Titer Glo
# [14] = test system: AMKL patient-derived xenograft; assay: In vivo efficacy, survival; parameters: species or system NSG-SGM3 mice; conditions: AMKL PDX
# [15] = test system: AMKL primary AML blast samples; assay: Ex vivo drug treatment of primary AML blasts on mesenchymal stromal cells; assay type: cell-based; conditions: Homo sapiens; primary blasts on MSC, 96 h
# ML2 = assay: Secondary dose-response HTS, Cell Titer Glo; assay type: cell-based, human; conditions: Homo sapiens; secondary high-throughput screen; ML-2; read-out: average effective concentration, ML-2
# [16] = test system: ML-2-luciferase/YFP+ xenograft; assay: In vivo efficacy, survival; parameters: species or system NSG mice; conditions: ML-2 xenograft, 50 mg kg−1 q4d, i.p.
# CHRF288-11 [17] = assay: Secondary dose-response HTS, Cell Titer Glo; assay type: cell-based, human; conditions: Homo sapiens, HTS; secondary high-throughput screen; CHRF288-11; read-out: average effective concentration, CHRF288-11
# [18] = test system: CBFA2T3-GLIS2/JAK2V617F-induced AMKL model; assay: In vivo efficacy, survival; parameters: species or system mice; conditions: CBFA2T3-GLIS2/JAK2V617F-Luc+ quaternary transplants, i.p.
# [19] = test system: Mll-PTD/wt:Flt3ITD/ITD secondary transplants; assay: In vivo efficacy, survival; parameters: species or system mice; conditions: 100 mg kg−1 daily x 5 days, i.p.
# MV4-11 [20] = assay: Secondary dose-response HTS, Cell Titer Glo; assay type: cell-based, human; conditions: Homo sapiens; secondary high-throughput screen; MV4-11; read-out: average effective concentration, MV4-11
# [21] = Pharmacokinetics of ruxolitinib, single oral dose, plasma LC-MS/MS; assay type: in vivo, mice; conditions: mouse, 60 mg kg−1 oral gavage
# Method: Data are mean ± standard error (SE) (N = 5 per gender). Concentration-time data were analyzed by non-compartmental analysis and pharmacokinetic parameters were calculated in WinNonLin. c–e, top Kaplan–Meier analysis of animal survival in c CHRF288–11-luciferase/YFP+ xenograft, d CBFA2T3-GLIS2/JAK2V617F-induced AMKL quaternary transplants, and e AMKL patient-derived xenograft.
# Animal studies were performed under protocols approved by the Institutional Animal Care and Use Committee at OSU. […] Serial blood collection was performed from 15 min up to 240 min after dose administration.
# CMY = assay: cells
# M07e [22] = assay: cells
# MKPL = assay: cells
# WSU = assay: cells; conditions: Homo sapiens, 72 h, read-out: IC50 (WSU)
# [23] = test system: CBFA2T3-GLIS2/JAK2V617F tertiary transplant leukemic blasts; assay type: cell-based, mouse
# CMK [24] = assay: cells
# M-MOK = assay: cells
# Meg-01 = assay: cells
compound,measurement,setting,value
"Nc1ccn([C@@H]2O[C@H](CO)[C@@H](O)[C@@H]2O)c(=O)n1 [Cytarabine, cytarabine]",IC50,MV4-11 [1],1980 nM
same,IC50,ML-2,26 nM
same,higher concentration of cytarabine giving nearly equivalent intracellular exposure to 1 µM gemcitabine,AML cell lines; 10 µM,~10 fold
same,uptake at 10 µM cytarabine compared to 1 µM cytarabine,AML cell lines; 10 µM,1.6–3.7 fold
same,uptake at 100 µM cytarabine compared to 1 µM cytarabine,AML cell lines; 100 µM,7–12 fold
same,IC50,CMS [2]; Cell Titer Glo,5370 nM
same,triphosphate elimination α half-life,[3],7 to 20 min
same,triphosphate elimination β half-life,[3],120 to 180 min
same,EC50,CMS [4],290 nM
same,IC50,MOLM-13 [5],31 nM
same,EC50,U937 [6],290 nM
same,EC50,MOLM-13 [7],300 nM
same,IC50,U937 [8],11 nM
same,EC50,M07e [9],> 10000 nM
same,EC50,CMK [10],320 nM
same,Median survival,"[11]; CHRF288-11-Luc+ model, low-dose 6.25 mg/kg once daily for 5 days for 3 weeks",26 days
same,Median survival,"[11]; CHRF288-11 xenograft, 50 mg kg−1 q4d, i.p.",25 days
same,Median survival,[12],50 days
same,IC50,"CHRF288-11 [13]; Cell Titer Glo, read-out: IC50 CHRF288-11",606 nM
same,IC50,THP-1,8810 nM
same,Median survival,"[14]; 50 mg kg−1 q4d, i.p.",56 days
same,IC50,[15],54 nM
same,EC50,ML2,100 nM
same,Median survival,[16],29 days
same,EC50,CHRF288-11 [17],1900 nM
same,Median survival,[18]; 50 mg kg−1 daily x 5 days,63 days
same,Median survival,[18]; 100 mg kg−1 daily x 5 days,80 days
same,Median survival,[19],49 days
same,EC50,MV4-11 [20],2600 nM
"N#CC[C@H](C1CCCC1)n1cc(-c2ncnc3[nH]ccc23)cn1 [Ruxolitinib, ruxolitinib]",IC50,CMS [2],64 nM
same,AUC(0-t),"[21]; BoyJ, Female",16.8 ± 10.8 µM·h
same,Cmax,"[21]; BoyJ, Female",18.1 ± 10.6 µM
same,Tmax,"[21]; BoyJ, Female",15 min
same,half-life,"[21]; BoyJ, Female",122 ± 66 min
same,AUC(0-t),"[21]; BoyJ, Male",17.9 ± 6.5 µM·h
same,Cmax,"[21]; BoyJ, Male",28.6 ± 10.6 µM
same,Tmax,"[21]; BoyJ, Male",15 min
same,half-life,"[21]; BoyJ, Male",158 ± 104 min
same,AUC(0-t),"[21]; NSG, Female",4.8 ± 0.6 µM·h
same,Cmax,"[21]; NSG, Female",6.9 ± 1.7 µM
same,Tmax,"[21]; NSG, Female",15 min
same,half-life,"[21]; NSG, Female",75.6 ± 28.8 min
same,AUC(0-t),"[21]; NSG, Male",4.1 ± 0.6 µM·h
same,Cmax,"[21]; NSG, Male",5.5 ± 1.7 µM
same,Tmax,"[21]; NSG, Male",15 min
same,half-life,"[21]; NSG, Male",79.2 ± 44.4 min
same,IC50,CMY,49 nM
same,Median survival,"[11]; CHRF288-11 xenograft, 60 mg kg−1 twice daily for 5 days up to 4 weeks, oral gavage",31 days
same,IC50,"CHRF288-11 [13]; read-out: IC50, ruxolitinib + BMP2, CHRF288-11, 72 h, with 100 ng mL−1 BMP2",103 nM
same,IC50,"CHRF288-11 [13]; read-out: IC50, ruxolitinib + EPO, CHRF288-11, 72 h, with 100 ng mL−1 EPO",142 nM
same,IC50,"CHRF288-11 [13]; read-out: IC50, ruxolitinib + TPO, CHRF288-11, 72 h, with 100 ng mL−1 TPO",480 nM
same,IC50,"CHRF288-11 [13]; read-out: IC50, ruxolitinib alone (Fig. 6g), CHRF288-11, 72 h, without cytokine",119 nM
same,IC50,"CHRF288-11 [13]; read-out: IC50 CHRF288-11, 72 h, Cell Titer Glo",143 nM
same,IC50,M07e [22],45 nM
same,IC50,MKPL,6300 nM
same,IC50,WSU,8.7 nM
same,Median survival,"[14]; 60 mg kg−1 twice daily for 5 days up to 4 weeks, oral gavage",43 days
same,sensitivity of primary murine blasts,[23],sensitive
same,IC50,CMK [24],142 nM
same,IC50,M-MOK,6.4 nM
same,IC50,Meg-01,> 10000 nM
